Laboratory results published in patent US8309685B2 (Celgene Avilomics Research, Inc., priority 2007, dated 2012).

Target: T1, HCV NS3/4A wild type (genotype 1b) (Hepatitis C virus genotype 1b, UniProt P26663)
T1 construct: mass spectroscopic analysis of HCV NS3/4A wild-type protease domain; purchased Bioenza Calif
Experiment: Mass spectrometric analysis (MALDI-TOF) of covalent modification, HCV wild type
Format: binding
Settings: 10-fold excess of compound to protein, 3 hrs
Description: Mass spectrometric analysis of HCV wild type or HCV variant C159S in the presence of test compound was performed. 100 pmols of HCV wild type (Bioenza Calif.) was incubated with compound for 1 hr and 3 hrs at 10-fold access of […] to protein. 1 ul aliquots of the samples (total volume of 4.24 ul) were diluted with 10 ul of 0.1% TFA prior to micro C4 ZipTipping directly onto the MALDI target using Sinapinic acid as the desorption matrix (10 mg/ml in 01% TFA:Acetonitrile 50:50). Analyses were performed on a Shimadzu Biotech Axima TOF^2 (Shimadzu Instruments) matrix-assisted-laser desorption/ionization Time-of-Flight (MALDI-TOF) mass spectrometer. The same procedure was carried out on 100 pmols of HCV C159S mutant of HCV protease for 3 hrs at 10-fold excess of (I-3) to protein.
As depicted in FIGS. 2, 3, 4, and 5, mass spectrometric analysis of HCV wild type or HCV mutants in the presence of test compound (I-3) was performed. […] 1 ul aliquots of the samples were diluted with 10 ul of 0.1% TFA prior to micro C4 ZipTipping directly onto the MALDI target using Sinapinic acid as the desorption matrix (10 mg/ml in 0.1% TFA:Acetonitrile 50:50).
Mass spectrometric analysis of HCV wild type (genotype 1b) in the presence of test compounds I-73 and I-75 was performed using the following protocol: HCV NS3/4A wild type (wt) was incubated for 1 hr at a 10× fold access of test compound to protein. 2 ul aliquots of the samples were diluted with 10 ul of 0.1% TFA prior to micro C4 ZipTipping directly onto the MALDI target using Sinapinic acid as the desorption matrix (10 mg/ml in 0.1% TFA:Acetonitrile 50:50). For intact protein mass measurement the instrument was set in Linear mode using a pulsed extraction setting of 24,500 and apomyoglobin as the standard to calibrate the instrument.
Mass spectrometric analysis of HCV NS3/4A genotypes 1a, 1b, 2a, and 3a in the presence of test compound I-96 was performed using the following protocol: HCV NS3/4A was incubated for 3 hr at a 10× fold access of test compound to protein. […]

C=CC(=O)NCC(=O)N1C[C@H](Oc2cc(-c3ccccc3)nc3cc(OC)ccc23)C[C@H]1C(=O)N[C@]1(C(=O)NS(=O)(=O)c2ccccc2)C[C@H]1C=C [Compound I-27, (2S,4R)-1-(2-acrylamidoacetyl)-4-(7-methoxy-2-phenylquinolin-4-yloxy)-N-((1R,2S)-1-(phenylsulfonylcarbamoyl)-2-vinylcyclopropyl)pyrrolidine-2-carboxamide]
Covalent modification of HCV wild type by mass spectrometry: near complete covalent modification
